# Measurements: the supplement of paper PMC11208160
# Assay: recombinant barcode read abundance after kanamycin selection (control-corrected) (log10(CPM+1)); higher = more efficient recombination; sequences stand for … in AGTGCAGAGAAAATCGGCCAGTTTTCTCTGCCTGCAGTCCGCATGCCGT…AGATTTATGCAGCGGACTGCCTTTCTCCCAAAGTGATAAACCGGACAGTATCATGGACCGGTTTTCCCGGTAATCCGTATTTGCAAGGTTGGTTTCACT; site = the 11-nt target
# How it was run: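 Reported as log10(CPM+1), each value stands for recombination efficiency. That efficiency is the averaged, control-corrected counts per million of barcodes found at recombinant junctions. Cells from a pooled E. coli library pairing targets with IS621 bridge RNA target-binding loops were plated twice on chloramphenicol/ampicillin LB agar (control) and twice on chloramphenicol/ampicillin/kanamycin with 0.1 mM IPTG.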
# 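Note: IS621 recombinase and bridge RNA in Escherichia coli cells.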
row,Sequence,recombinant barcode read abundance (log10)
1,GAGCGCTCTTGGGTTCTAACCTGTTGCTC (site GAGCGCTCTAA),0.525
2,GAGCGCTCTTGGGTTCTAACCTGTTGCTC (site GAGCGCTCTCA),0.0599
3,GAGCGCTCTTGGGTTCTAACCTGTTGCTC (site GAGCGCTCTGA),1.18
4,GAGCGCTCTTGGGTTCTAACCTGTTGCTC (site GAGCGCTCTTA),0.381
5,GAGCGTACTTGGGTTCTAACCTGTTGCAT (site GAGAGTACTAT),0.257
6,GAGCGTACTTGGGTTCTAACCTGTTGCAT (site GAGCGTACTAT),1.09
7,GAGCGTACTTGGGTTCTAACCTGTTGCAT (site GAGGGTACTAT),0.0723
8,GAGCGTACTTGGGTTCTAACCTGTTGCAT (site GAGTGTACTAT),0.0144
9,GAGCGTCCTTGGGTTCTAACCTGTTGCTA (site AGCGAATCTCG),0.0924
10,GAGCGTCCTTGGGTTCTAACCTGTTGCTA (site GAGCGTCCTTA),0.94
11,GAGCTACCTTGGGTTCTAACCTGTTGCCT (site GAGCTACCTAG),1.46
12,GAGCTACCTTGGGTTCTAACCTGTTGCCT (site GAGCTACCTCG),0.549
13,GAGCTACCTTGGGTTCTAACCTGTTGCCT (site GAGCTACCTGG),0.172
14,GAGCTACCTTGGGTTCTAACCTGTTGCCT (site GAGCTACCTTG),0.0234
15,GAGCTGCCTTGGGTTCTAACCTGTTGCTT (site AAGCTGCCTAG),0.25
16,GAGCTGCCTTGGGTTCTAACCTGTTGCTT (site GAGCTGCCTAA),1.3
17,GAGGAGCCTTGGGTTCTAACCTGTTGCGT (site GAGGAGCCTAC),2.62
18,GAGGAGCCTTGGGTTCTAACCTGTTGCGT (site TAGGAACCTAC),1.34
19,GAGGCGGCTTGGGTTCTAACCTGTTGCTT (site GAGACGGCTAA),0.162
20,GAGGCGGCTTGGGTTCTAACCTGTTGCTT (site GAGCCGGCTAA),0.149
21,GAGGCGGCTTGGGTTCTAACCTGTTGCTT (site GAGGCGGCTAA),1.04
22,GAGGCGGCTTGGGTTCTAACCTGTTGCTT (site GAGTCGGCTAA),0.0862
23,GAGGCTCCTTGGGTTCTAACCTGTTGCCA (site GAGGCTCCTAG),2.19
24,GAGGCTCCTTGGGTTCTAACCTGTTGCCA (site GAGGCTCCTCG),0.0289
25,GAGGCTCCTTGGGTTCTAACCTGTTGCCA (site GAGGCTCCTGG),0.164
26,GAGGCTCCTTGGGTTCTAACCTGTTGCCA (site GAGGCTCCTTG),0.365

row,Sequence,recombinant barcode read abundance (log10)
1,GAGGCTCCTTGGGTTCTAACCTGTTGCCT (site GAGGCTCCTAG),0.744
2,GAGGCTCCTTGGGTTCTAACCTGTTGCCT (site GAGGCTCCTCG),0.0603
3,GAGGCTCCTTGGGTTCTAACCTGTTGCCT (site GAGGCTCCTGG),0.137
4,GAGGCTCCTTGGGTTCTAACCTGTTGCCT (site GAGGCTCCTTG),0.201
5,GAGGGCCCTTGGGTTCTAACCTGTTGCCG (site GAGGGCCCTCA),0.29
6,GAGGGCCCTTGGGTTCTAACCTGTTGCCG (site GAGGGCCCTCC),1.2
7,GAGGGCCCTTGGGTTCTAACCTGTTGCCG (site GAGGGCCCTCG),1.96
8,GAGGGCCCTTGGGTTCTAACCTGTTGCCG (site GAGGGCCCTCT),0.759
9,GAGGGCCCTTGGGTTCTAACCTGTTGCGG (site GAGGGCCCTCA),1.94
10,GAGGGCCCTTGGGTTCTAACCTGTTGCGG (site GAGGGCCCTCC),3.11
11,GAGGGCCCTTGGGTTCTAACCTGTTGCGG (site GAGGGCCCTCG),0.81
12,GAGGGCCCTTGGGTTCTAACCTGTTGCGG (site GAGGGCCCTCT),2.8
13,GAGGGTACTTGGGTTCTAACCTGTTGCAT (site GAGAGTACTAT),1.16
14,GAGGGTACTTGGGTTCTAACCTGTTGCAT (site GAGCGTACTAT),0.206
15,GAGGGTACTTGGGTTCTAACCTGTTGCAT (site GAGGGTACTAT),2.69
16,GAGGGTACTTGGGTTCTAACCTGTTGCAT (site GAGTGTACTAT),0.102
17,GAGGGTCCTTGGGTTCTAACCTGTTGCGT (site GAGGGTCCTAA),0.194
18,GAGGGTCCTTGGGTTCTAACCTGTTGCGT (site GAGGGTCCTAC),2.82
19,GAGGGTCCTTGGGTTCTAACCTGTTGCGT (site GAGGGTCCTAG),1.86
20,GAGGGTCCTTGGGTTCTAACCTGTTGCGT (site GAGGGTCCTAT),2.29
21,GAGTACCCTTGGGTTCTAACCTGTTGCGT (site GAGAATCCTAC),0.107
22,GAGTACCCTTGGGTTCTAACCTGTTGCGT (site GAGTACCCTAC),3.2
23,GAGTAGCCTTGGGTTCTAACCTGTTGCGG (site GAGTAGCCTCC),2.59
24,GAGTAGCCTTGGGTTCTAACCTGTTGCGG (site GAGTCGCCTCC),0.196
25,GAGTAGCCTTGGGTTCTAACCTGTTGCGG (site GAGTGGCCTCC),0.3
26,GAGTAGCCTTGGGTTCTAACCTGTTGCGG (site GAGTTGCCTCC),0.204

row,Sequence,recombinant barcode read abundance (log10)
1,GAGTGTACTTGGGTTCTAACCTGTTGCAT (site GAGAGTACTAT),0.208
2,GAGTGTACTTGGGTTCTAACCTGTTGCAT (site GAGCGTACTAT),0.553
3,GAGTGTACTTGGGTTCTAACCTGTTGCAT (site GAGGGTACTAT),0.029
4,GAGTGTACTTGGGTTCTAACCTGTTGCAT (site GAGTGTACTAT),1.32
5,GAGTGTTCTTGGGTTCTAACCTGTTGCTT (site GAGTGTTCTAA),0.277
6,GAGTGTTCTTGGGTTCTAACCTGTTGCTT (site TGTACGACTCC),0.0677
7,GATAACTCTTGGGTTCTAACCTGTTGCCT (site AATAACTCTAG),0.802
8,GATAACTCTTGGGTTCTAACCTGTTGCCT (site CATAACTCTAG),0.329
9,GATAACTCTTGGGTTCTAACCTGTTGCCT (site GATAACTCTAG),0.734
10,GATAACTCTTGGGTTCTAACCTGTTGCCT (site TATAACTCTAG),0.315
11,GATACTGCTTGGGTTCTAACCTGTTGCCT (site GAAACTGCTAG),0.0212
12,GATACTGCTTGGGTTCTAACCTGTTGCCT (site GACACTGCTAG),0.434
13,GATACTGCTTGGGTTCTAACCTGTTGCCT (site GAGACTGCTAG),0.0206
14,GATACTGCTTGGGTTCTAACCTGTTGCCT (site GATACTGCTAG),0.504
15,GATAGGACTTGGGTTCTAACCTGTTGCGT (site GATAGGACTAC),2.12
16,GATAGGACTTGGGTTCTAACCTGTTGCGT (site TATAGGACTAC),2.03
17,GATAGGGCTTGGGTTCTAACCTGTTGCGG (site GATAGGGCTCC),2.34
18,GATAGGGCTTGGGTTCTAACCTGTTGCGG (site TATAGGGCTCG),0.362
19,GATAGTGCTTGGGTTCTAACCTGTTGCCT (site GATAGTACTAG),0.0881
20,GATAGTGCTTGGGTTCTAACCTGTTGCCT (site GATAGTCCTAG),0.0622
21,GATAGTGCTTGGGTTCTAACCTGTTGCCT (site GATAGTGCTAG),0.536
22,GATAGTGCTTGGGTTCTAACCTGTTGCCT (site GATAGTTCTAG),0.0158
23,GATCAATCTTGGGTTCTAACCTGTTGCCT (site GAGCAAACTAG),0.0249
24,GATCAATCTTGGGTTCTAACCTGTTGCCT (site GATCAATCTAG),0.332
25,GATCGAGCTTGGGTTCTAACCTGTTGCGA (site GATCGAGCTTC),0.921
